Common to all, as to assay: relative viability (nuclei count vs DMSO), 5 days (fraction); higher = more cells survive
One experiment has as its system NCI-H2342. The method, boiled down:
(§1)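 Values are medians from duplicate plates. Each reflects relative viability, defined as the nuclei count of treated wells over that of vehicle wells. Lung cancer cell lines in 1536-well plates were pin-tool dosed one day after seeding with one drug alone or with a fixed anchor-drug dose plus five library-drug doses (not always all listed) in √10 steps, then fixed, stained and imaged at 4× after 5 days.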

A further experiment relates to NCI-H1648. The method, boiled down: as §1
For a further experiment, the system named is NCI-H522. Put shortly:
as §1

The test system of the next experiment is SW 900. Put shortly: as §1
The test system of a further experiment is A549. The method, boiled down: as §1
The subject of a further experiment is NCI-H1563. The method, boiled down: as §1

Turning to `Cc1cnc(-c2cnc(NCCNc3ccc(C#N)cn3)nc2-c2ccc(Cl)cc2Cl)[nH]1` + CC(=O)Nc1cccc(-n2c(=O)n(C3CC3)c(=O)c3c(Nc4ccc(I)cc4F)n(C)c(=O)c(C)c32)c1 [Trametinib] (partner 0.02 µM), the relative viability amounted to 0.923 in the experiment with NCI-H2342 (first compound 0.08 µM); 0.653 in the experiment with NCI-H2342 (first compound 0.253 µM); 0.801 in the experiment on NCI-H2342 (first compound 0.8 µM); 0.697 in the experiment on NCI-H2342 (first compound 2.53 µM); 0.5 in the experiment on NCI-H1648 (first compound 0.08 µM); 0.381 in the experiment on NCI-H1648 (first compound 0.253 µM). Besides, the relative viability with NCI-H1648 (first compound 0.8 µM) amounted to 0.476; in the experiment with NCI-H1648 (first compound 2.53 µM) it was 0.456; with NCI-H522 (first compound 0.08 µM), 0.909; in the experiment with NCI-H522 (first compound 0.253 µM) it was 0.719; in the experiment on NCI-H522 (first compound 0.8 µM), 0.799; in the experiment with NCI-H522 (first compound 2.53 µM) it was 0.722. Besides, the relative viability amounted to 0.905 in the experiment with SW 900 (first compound 0.08 µM), 0.629 in the experiment on SW 900 (first compound 0.253 µM), 0.772 in the experiment on SW 900 (first compound 0.8 µM) and 0.765 in the experiment on SW 900 (first compound 2.53 µM).
As for `O=c1[nH]c2ccccc2n1C1CCN(CCCC(c2ccc(F)cc2)c2ccc(F)cc2)CC1` [Pimozide] + Nc1ncn([C@H]2C[C@H](O)[C@@H](CO)O2)c(=O)n1 [Decitabine] (partner 2 µM), the relative viability worked out at 0.698 with NCI-H2342 (first compound 0.08 µM); 0.74 in the experiment on NCI-H2342 (first compound 0.253 µM); 0.715 in the experiment on NCI-H2342 (first compound 0.8 µM); 0.746 with NCI-H2342 (first compound 2.53 µM); 0.725 in the experiment with NCI-H2342 (first compound 8 µM); 0.307 in the experiment with A549 (first compound 0.08 µM). The relative viability in the experiment on A549 (first compound 0.253 µM) amounted to 0.208; in the experiment with A549 (first compound 0.8 µM), 0.211; in the experiment with A549 (first compound 2.53 µM), 0.312; in the experiment with A549 (first compound 8 µM) it was 0.199; in the experiment with NCI-H1648 (first compound 0.08 µM), 0.392; in the experiment on NCI-H1648 (first compound 0.8 µM), 0.466. Further, the relative viability with NCI-H1648 (first compound 2.53 µM) is 0.55; with NCI-H1648 (first compound 8 µM) it was 0.517; in the experiment with NCI-H522 (first compound 0.08 µM), 0.679; in the experiment with NCI-H522 (first compound 0.253 µM), 0.693; with NCI-H522 (first compound 0.8 µM), 0.615; in the experiment with NCI-H522 (first compound 2.53 µM), 0.698. Besides, the relative viability in the experiment on NCI-H522 (first compound 8 µM) turned out to be 0.771; in the experiment on SW 900 (first compound 0.08 µM), 0.451; with SW 900 (first compound 0.253 µM) it was 0.415; in the experiment with SW 900 (first compound 2.53 µM), 0.548; with SW 900 (first compound 8 µM), 0.472.
In the case of `O=C(O)CCCCC(CCSCc1ccccc1)SCc1ccccc1` (stereo unspecified) [CPI-613] + Nc1nc2[nH]cc(CCc3ccc(C(=O)N[C@@H](CCC(=O)O)C(=O)O)cc3)c2c(=O)[nH]1 [Pemetrexed] (partner 0.2 µM), the relative viability in the experiment with NCI-H2342 (first compound 5 µM) was 0.743; in the experiment on NCI-H2342 (first compound 15.81 µM) it was 0.761; in the experiment with NCI-H2342 (first compound 50 µM), 0.804; with NCI-H2342 (first compound 158.11 µM) it was 0.744; with NCI-H2342 (first compound 500 µM), 0.785; in the experiment with NCI-H1648 (first compound 5 µM) it was 0.639. Moreover, the relative viability is 0.623 in the experiment with NCI-H1648 (first compound 15.81 µM); 0.823 with NCI-H1648 (first compound 50 µM); 0.527 in the experiment on NCI-H1648 (first compound 158.11 µM); 0.139 in the experiment on NCI-H1648 (first compound 500 µM); 1.04 with NCI-H522 (first compound 5 µM); 1.06 with NCI-H522 (first compound 15.81 µM). Moreover, the relative viability in the experiment with NCI-H522 (first compound 50 µM) worked out at 1.3; in the experiment with NCI-H522 (first compound 158.11 µM), 0.857; in the experiment with NCI-H522 (first compound 500 µM) it was 0.473; in the experiment on NCI-H1563 (first compound 5 µM), 0.732; in the experiment with NCI-H1563 (first compound 15.81 µM), 0.713; in the experiment with NCI-H1563 (first compound 50 µM), 0.727. The relative viability in the experiment with NCI-H1563 (first compound 158.11 µM) is 0.631; in the experiment on NCI-H1563 (first compound 500 µM), 0.394; with SW 900 (first compound 5 µM), 0.451; with SW 900 (first compound 50 µM), 0.47; in the experiment on SW 900 (first compound 158.11 µM) it was 0.372; in the experiment on SW 900 (first compound 500 µM), 0.0088.
Take `O=c1[nH]c2ccccc2n1C1CCN(CCCC(c2ccc(F)cc2)c2ccc(F)cc2)CC1` [Pimozide] + Nc1nc2[nH]cc(CCc3ccc(C(=O)N[C@@H](CCC(=O)O)C(=O)O)cc3)c2c(=O)[nH]1 [Pemetrexed] (partner 0.2 µM): the relative viability with NCI-H2342 (first compound 0.08 µM) amounted to 0.796; in the experiment on NCI-H2342 (first compound 0.253 µM), 0.757; with NCI-H2342 (first compound 0.8 µM) it was 0.634; in the experiment with NCI-H2342 (first compound 2.53 µM), 0.749; in the experiment with NCI-H2342 (first compound 8 µM) it was 0.752; in the experiment with NCI-H1648 (first compound 0.08 µM), 0.818. In addition, the relative viability came to 0.573 in the experiment with NCI-H1648 (first compound 0.8 µM); 0.673 in the experiment on NCI-H1648 (first compound 2.53 µM); 0.612 in the experiment on NCI-H1648 (first compound 8 µM); 1.04 in the experiment on NCI-H522 (first compound 0.08 µM); 0.848 with NCI-H522 (first compound 0.253 µM); 0.832 in the experiment with NCI-H522 (first compound 0.8 µM). The relative viability was found to be 0.818 in the experiment on NCI-H522 (first compound 2.53 µM); 0.904 with NCI-H522 (first compound 8 µM); 0.606 in the experiment with NCI-H1563 (first compound 0.08 µM); 0.849 in the experiment with NCI-H1563 (first compound 0.253 µM); 0.745 with NCI-H1563 (first compound 0.8 µM); 0.781 with NCI-H1563 (first compound 2.53 µM). Moreover, the relative viability stood at 0.734 in the experiment with NCI-H1563 (first compound 8 µM); 0.483 with SW 900 (first compound 0.08 µM); 0.465 in the experiment with SW 900 (first compound 0.253 µM); 0.447 in the experiment with SW 900 (first compound 2.53 µM); 0.418 with SW 900 (first compound 8 µM).
Turning to `Cc1cnc(-c2cnc(NCCNc3ccc(C#N)cn3)nc2-c2ccc(Cl)cc2Cl)[nH]1` + Nc1nc2[nH]cc(CCc3ccc(C(=O)N[C@@H](CCC(=O)O)C(=O)O)cc3)c2c(=O)[nH]1 [Pemetrexed] (partner 0.2 µM), the relative viability turned out to be 0.823 in the experiment with NCI-H2342 (first compound 0.08 µM); 0.633 in the experiment on NCI-H2342 (first compound 0.253 µM); 0.721 in the experiment on NCI-H2342 (first compound 0.8 µM); 0.736 in the experiment with NCI-H2342 (first compound 2.53 µM); 0.545 in the experiment with NCI-H1648 (first compound 0.08 µM); 0.723 in the experiment with NCI-H1648 (first compound 0.253 µM). Besides, the relative viability with NCI-H1648 (first compound 0.8 µM) was determined as 0.703; in the experiment with NCI-H1648 (first compound 2.53 µM), 0.653; with NCI-H522 (first compound 0.08 µM), 1.08; with NCI-H522 (first compound 0.253 µM) it was 1.03; in the experiment with NCI-H522 (first compound 0.8 µM) it was 0.97; in the experiment with NCI-H522 (first compound 2.53 µM), 1.07. Besides, the relative viability in the experiment on NCI-H1563 (first compound 0.08 µM) came out at 0.746; with NCI-H1563 (first compound 0.253 µM) it was 0.805; in the experiment with NCI-H1563 (first compound 0.8 µM), 0.768; with NCI-H1563 (first compound 2.53 µM), 0.722; with SW 900 (first compound 0.08 µM), 0.501; with SW 900 (first compound 0.253 µM), 0.487. Further, the relative viability in the experiment with SW 900 (first compound 0.8 µM) was 0.478; in the experiment on SW 900 (first compound 2.53 µM) it was 0.438.

The values are drawn from the supplement of paper PMC10307832.
